Results taken from patent US20040229880A1, “4-[(2,4-dichloro-5-methoxyphenyl)amino]-6-alkoxy-3-quinolinecarbonitriles for the treatment of ischemic injury” (Wyeth, priority 2003, published 2004).

Columns and labels:
[1] = test system: Rat2 fibroblasts stably transformed with v-Src/Hu c-Src fusion gene; assay: Anchorage Independent Src-transformed Fibroblast Proliferation Assay; type: cell-based; conditions: Rattus norvegicus, src dependent suspension growth, MTS, read-out: Src cells IC50
transient focal ischemia [2] = assay: IP administration in rat model of transient focal ischemia (90 min MCA occlusion, 48 h reperfusion); type: in vivo, Wistar rats; conditions: for recovery from stroke-induced neurological deficits: 85 min after onset of ischemia, evaluated over 48 hours
Procedure: Wistar rats were subjected to a 90 min occlusion of the middle cerebral artery (MCA) using an intraluminal suture approach as described by Longa et al., Stroke 1989, 20:84 followed by reperfusion for 48 hours. […] Following reperfusion, the animals were evaluated over a 48 hour period for neurological function deficit and weight loss/gain. Infarct size was measured following sacrifice at 48 hours post MCA occlusion.

transient focal ischemia [3] = assay: IV administration in rat model of transient focal ischemia (90 min MCA occlusion, 48 h reperfusion); type: in vivo, Wistar rats
Procedure: Following reperfusion, the animals were evaluated over a 48 hour period for neurological function deficit and weight loss/gain. Brain tissue infarction volume by were reduced by 22%, 53% and 42%, respectively. […] Thus, compounds of the present invention provide neuroprotection following focal ischemia.

transient focal ischemia [4] = assay: Therapeutic window in transient focal ischemia model; type: in vivo, Wistar rats
Procedure: Therapeutic Window In this model of transient focal ischemia three studies were conducted to examine therapeutic window. Wistar rats were subjected to 90 minute occlusion of the MCA followed by reperfusion as described above. […] Volume of infarcted tissue was measured by histological staining.

[5] = test system: vascular permeability in the ischemic striatum; assay: Post ischemic vascular permeability (Evans Blue extravasation); type: in vivo, Wistar rats; conditions: single IV bolus 30 min after onset of ischemia at 3, 10 and 30 mg/kg (dose of the value not stated), 24 hours reperfusion
Procedure: Post Ischemic Vascular Permeability Wistar rats were subjected to a 90 min occlusion of the middle cerebral artery (MCA) using an intraluminal suture approach as described by Longa et al., Stroke 1989, 20:84 followed by reperfusion for 24 hours. […] Two hours before sacrifice animals received an IV injection of 2% Evans Blue in saline. Brains were perfused with saline and the striatum dissected. Evans Blue was extracted and quantified by spectrofluorometer based on external standards. Vascular permeability in the ischemic striatum was reduced as evidenced by a 60% decrease of Evans Blue extravasation. Thus, compounds of the present invention reduce vascular permeability associated with ischemic injury.

permanent focal ischemia [6] = assay: Permanent focal ischemia, model of extreme severity (intraluminal suture occlusion of internal carotid artery); type: in vivo, rat; conditions: relatively short outcome (28 hours)
Procedure: Permanent Focal Ischemia Example 1 was also evaluated in two rat models of permanent focal ischemia.

permanent focal ischemia [7] = assay: Permanent focal ischemia with extensive infarction to sensorimotor cortex, 21 day neurological assessment; type: in vivo, Wistar rats; conditions: IV bolus 10 mg/kg at 90 min, 4 hours later, and 24 and 28 hours later (total 40 mg/kg); Day 21
Procedure: Wistar rats (n=5 per group) were subjected to focal ischemic stroke model that results in a extensive ischemia to the sensorimotor cortex substantially as described by Chen et al., (Stroke 17:738, 1986). […] Results were evaluated by Generalized Regression Model to determine statistical significance of the differences between slopes and to compare final neurological outcome after 21 days. […] Thus, compounds of the present invention provide long-term improvement of neurological deficits.

Src = molecular target: T1, Src (Homo sapiens, UniProt P12931); assay: Src Kinase Assay (ELISA or Delfia format, cdc2 substrate peptide); type: biochemical; conditions: read-out: Src enzyme IC50
T1 construct: purchased Upstate Biotechnologies, Lake Placid, N.Y
T1 sequence (P12931 whole entry): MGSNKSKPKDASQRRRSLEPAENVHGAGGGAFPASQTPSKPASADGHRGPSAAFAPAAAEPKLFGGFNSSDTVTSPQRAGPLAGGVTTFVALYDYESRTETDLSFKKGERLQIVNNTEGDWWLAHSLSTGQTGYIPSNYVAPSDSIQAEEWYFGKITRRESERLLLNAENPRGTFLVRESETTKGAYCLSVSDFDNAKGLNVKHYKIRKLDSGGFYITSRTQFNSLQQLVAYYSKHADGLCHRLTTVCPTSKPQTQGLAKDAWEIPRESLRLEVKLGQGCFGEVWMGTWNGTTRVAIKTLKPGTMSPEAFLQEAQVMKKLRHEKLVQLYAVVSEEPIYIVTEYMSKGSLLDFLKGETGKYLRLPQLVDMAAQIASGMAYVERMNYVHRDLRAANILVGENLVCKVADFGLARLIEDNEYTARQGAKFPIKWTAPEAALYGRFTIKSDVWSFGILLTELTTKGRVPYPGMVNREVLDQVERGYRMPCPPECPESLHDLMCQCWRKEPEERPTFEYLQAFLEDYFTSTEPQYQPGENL

For `COc1cc(Nc2c(C#N)cnc3cc(OCCCN4CCN(C)CC4)c(OC)cc23)c(Cl)cc1Cl` [Example 1, 4-[(2,4-Dichloro-5-methoxyphenyl)amino]-6-methoxy-7-[3-(4-methyl-1-piperazinyl)propoxy]-3-quinolinecarbonitrile], the IC50 [1] was 100 nM, the “recovery from stroke-induced neurological deficits” value (transient focal ischemia [2]; 5 mg/kg ip) was “significantly improved” and the “recovery from stroke-induced neurological deficits” value (transient focal ischemia [2]; 45 mg/kg ip) was “significantly improved”. The “volume of infarcted brain tissue, statistical significance of reduction” value (transient focal ischemia [2]; 45 mg/kg ip, 48 hours post MCA occlusion) was “statistical significance was achieved”, the body weight recovery (transient focal ischemia [2]; ip, over 48 hours) was “Improvement in body weight recovery was observed” and the “volume of infarcted brain tissue” value (transient focal ischemia [2]; most doses (1.5, 5, 15, or 45 mg/kg ip), 48 hours post MCA occlusion) was “Reductions in the volume of infarcted brain tissue were observed”. The “Mean Motor Deficit Score at 24 hrs” value (transient focal ischemia [3]; 3 mg/kg iv) was 3.83 ± 0.3, the “Mean Motor Deficit Score at 48 hrs” value (transient focal ischemia [3]; 3 mg/kg iv) was 3.25 ± 0.37 and the “Brain tissue infarction volume reduced by” value (transient focal ischemia [3]; 3 mg/kg iv, 30 min after MCA occlusion) was 22%. For the same compound, the “Mean Motor Deficit Score at 24 hrs” value (transient focal ischemia [3]; 10 mg/kg iv) was 4.08 ± 0.08, the “Mean Motor Deficit Score at 48 hrs” value (transient focal ischemia [3]; 10 mg/kg iv) was 3.67 ± 0.22 and the “Brain tissue infarction volume reduced by” value (transient focal ischemia [3]; 10 mg/kg iv, 30 min after MCA occlusion) was 53%. For the same compound, the “Mean Motor Deficit Score at 24 hrs” value (transient focal ischemia [3]; 30 mg/kg iv) was 4.08 ± 0.23, the “Mean Motor Deficit Score at 48 hrs” value (transient focal ischemia [3]; 30 mg/kg iv) was 3.67 ± 0.28 and the “Brain tissue infarction volume reduced by” value (transient focal ischemia [3]; 30 mg/kg iv, 30 min after MCA occlusion) was 42%. For the same compound, the stroke-induced neurological deficits (transient focal ischemia [3]; all three doses (3, 10 and 30 mg/kg iv)) was “significantly reduced”, the Post-stroke weight loss (transient focal ischemia [3]; iv, 30 min after MCA occlusion) was “significantly reduced” and the “Brain tissue infarction (as a % of vehicle treated)” value (transient focal ischemia [4]; single 10 mg/kg dose administered between 30 min and 4 hours after the ischemic injury) was “statistically reduced”. For the same compound, the “protection from neurological deficits (as a percent of vehicle treated)” value (transient focal ischemia [4]; single 10 mg/kg dose administered up to 5 hours post-stroke) was “Statistically significant protection”, the “protection from ischemia-induced weight loss (as a % of vehicle treated)” value (transient focal ischemia [4]; single 10 mg/kg dose up to 5 hours post stroke) was “statistically significant protection” and the “decrease of Evans Blue extravasation in the ischemic striatum” value [5] was 60%. The “effect in permanent focal ischemia model of extreme severity” value (permanent focal ischemia [6]) was “little or no effect” and the “Behavioral Score (sensorimotor deficits) as compared to a control group” value (permanent focal ischemia [7]) was “statistically significant improvement”.

In the case of `CCN1CCN(CCCOc2cc3ncc(C#N)c(Nc4cc(OC)c(Cl)cc4Cl)c3cc2OC)CC1` [Example 2, 4-[(2,4-Dichloro-5-methoxyphenyl)amino]-7-[3-(4-ethyl-1-piperazinyl)propoxy]-6-methoxy-3-quinolinecarbonitrile], the IC50 [1] is reported as 130 nM.

`COc1cc(Nc2c(C#N)cnc3cc(OCCN4CCN(C)CC4)c(OC)cc23)c(Cl)cc1Cl` [Example 3, 4-[(2,4-Dichloro-5-methoxyphenyl)amino]-6-methoxy-7-[2-(4-methyl-1-piperazinyl)ethoxy]-3-quinolinecarbonitrile] gave an IC50 (Src) of 4 nM, an IC50 [1] of 380 nM and a melting point of 165 to 167 °C.

Work on `CCN1CCN(CCOc2cc3ncc(C#N)c(Nc4cc(OC)c(Cl)cc4Cl)c3cc2OC)CC1` [Example 4, 4-[(2,4-Dichloro-5-methoxyphenyl)amino]-7-[2-(4-ethyl-1-piperazinyl)ethoxy]-6-methoxy-3-quinolinecarbonitrile] yielded an IC50 (Src) of 3.6 nM, an IC50 [1] of 600 nM and a melting point of 101 to 105 °C.

For `CCN1CCC(COc2cc3ncc(C#N)c(Nc4cc(OC)c(Cl)cc4Cl)c3cc2OC)CC1` [Example 8, 4-[(2,4-Dichloro-5-methoxyphenyl)amino]-7-[(1-ethylpiperidin-4-yl)methoxy]-6-methoxyquinoline-3-carbonitrile], the IC50 (Src) was 2.1 nM, the IC50 [1] was 170 nM and the melting point was 192 to 195 °C.

Work on `CCOc1cc2c(Nc3cc(OC)c(Cl)cc3Cl)c(C#N)cnc2cc1OCCCN1CCN(C)CC1` [Example 9, 4-[(2,4-Dichloro-5-methoxyphenyl)amino]-6-ethoxy-7-[3-(4-methylpiperazin-1-yl)propoxy]quinoline-3-carbonitrile] yielded an IC50 [1] of 86 nM and a melting point of 137 to 138 °C.

`CCOc1cc2c(Nc3cc(OC)c(Cl)cc3Cl)c(C#N)cnc2cc1OCC1CCN(C)CC1` [Example 10, 4-[(2,4-Dichloro-5-methoxyphenyl)amino]-6-ethoxy-7-[(1-methylpiperidin-4-yl)methoxy]quinoline-3-carbonitrile] showed an IC50 (Src) of 2.1 nM, an IC50 [1] of 176 nM and a melting point of 182 to 186 °C.

`CCOc1cc2c(Nc3cc(OC)c(Cl)cc3Cl)c(C#N)cnc2cc1OCCCN1CCN(CC)CC1` [Example 11, 4-[(2,4-Dichloro-5-methoxyphenyl)amino]-6-ethoxy-7-[3-(4-ethylpiperazin-1-yl)propoxy]quinoline-3-carbonitrile] gave an IC50 (Src) of 0.85 nM, an IC50 [1] of 160 nM and a melting point of 127 to 130 °C.

With `CCOc1cc2c(Nc3cc(OC)c(Cl)cc3Cl)c(C#N)cnc2cc1OCCCC1CCN(C)CC1` [Example 12, 4-[(2,4-Dichloro-5-methoxyphenyl)amino]-6-ethoxy-7-[3-(1-methylpiperidin-4-yl)propoxy]quinoline-3-carbonitrile] the IC50 (Src) was 1.4 nM, the IC50 [1] was 96 nM and the melting point was 148 to 151 °C.

For `CCOc1cc2c(Nc3cc(OC)c(Cl)cc3Cl)c(C#N)cnc2cc1OCCN1CCN(C)CC1` [Example 13, 4-[(2,4-Dichloro-5-methoxyphenyl)amino]-6-ethoxy-7-[2-(4-methyl-1-piperazinyl)ethoxy]quinoline-3-carbonitrile], the IC50 (Src) was 1.5 nM, the IC50 [1] was 146 nM and the melting point was 141 to 143 °C.

In the case of `CCOc1cc2c(Nc3cc(OC)c(Cl)cc3Cl)c(C#N)cnc2cc1OCCC1CCN(C)CC1` [Example 14, 4-[(2,4-Dichloro-5-methoxyphenyl)amino]-6-ethoxy-7-[2-(1-methylpiperidin-4-yl)ethoxy]quinoline-3-carbonitrile], the IC50 (Src) is reported as 1.9 nM, the IC50 [1] is reported as 267 nM and the melting point is reported as 174 to 176 °C.

Work on `CCCN1CCN(CCCOc2cc3ncc(C#N)c(Nc4cc(OC)c(Cl)cc4Cl)c3cc2OC)CC1` [Example 15, 4-[(2,4-Dichloro-5-methoxyphenyl)amino]-6-methoxy-7-[3-(4-propyl-1-piperazinyl)propoxy]-3-quinolinecarbonitrile] yielded an IC50 [1] of 160 nM.
